# Data taken from patent publication US9890147B2 (BAYER PHARMA AKTIENGESELLSCHAFT, priority 2012, dated 2018).
# Columns and labels:
# MOLM-13 cells = assay: Cell proliferation assay (alamarBlue), MOLM-13; type: cell-based; conditions: Homo sapiens, 96 hours incubation, inhibition of cell proliferation
# Protocol: In accordance with the invention, the capability of the substances to inhibit cell proliferation was determined Cell viability was determined using the alamarBlue® reagent (Invitrogen) in a Victor X3 Multilabel Reader (Perkin Elmer). The excitation wavelength was 530 nm and the emission wavelenth […].
# The MOLM-13 cells (DSMZ, ACC 554) were sown at a concentration of 4000 cells/well in 100 μl growth medium (RPMI1640, 10% FCS) on 96-well microtitre plates.
# After an overnight incubation at 37° C., the fluorescence values (CI values) were determined. The plates were then treated with various substance dilutions (1E-5 M, 3E-6 M, 1E-6M, 3E-7 M, 1E-7 M, 3E-8 M, 1E-8 M) and incubated at 37° C. for 72 (MV4-11-, LOX-IMVI cells), 96 (MOLM-13-, B16F10-, MDA-MB-431-, Caov-3 cells), 120 (MOLP-8-, KMS-12-PE cells) or 168 (LAPC-4 cells) hours. The fluorescence values (CO values) were then determined. For the data analysis, the CI values were subtracted from the CO values and the results were compared between cells treated with different dilutions of the substance or with buffer solution only. These were used to calculate the IC 50 values (substance concentration required for 50% inhibition of cell proliferation).
# BRD4 (BD1) = target: T1, BRD4 (BD1) (Homo sapiens, UniProt O60885); assay: Binding assay BRD4/acetylated peptide H4 (TR-FRET protein-protein interaction assay)
# T1 construct: with relatively long constructs also being possible, preferably amino acids 44-168; made in house; host or cells: E. coli
# Method in brief: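 Displacement of biotin-Ac-H4 peptide from His6-tagged BRD4(BD1), final usually 10 nM, read as Eu-streptavidin to anti-His-XL665 TR-FRET (665/620 nm). Compounds tested at 11 doses up to 20 μM in duplicate, pH 7.5 HEPES, 22 °C then 4 °C incubation; IC50 by 4-parameter regression.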
IC50 (MOLM-13 cells),IC50 (BRD4 (BD1)),SMILES
1.16 µM,0.26 µM,"CNC(=O)N1N=C(c2ccc(N3CCN(Cc4ccccc4)CC3=O)cc2)c2cc(OC)c(OC)cc2CC1C (racemic) [Example 36, (±)-1-[4-(4-benzyl-2-oxopiperazin-1-yl)phenyl]-7,8-dimethoxy-N,4-dimethyl-4,5-dihydro-3H-2,3-benzodiazepine-3-carboxamide]"
1.13 µM,0.12 µM,"CNC(=O)N1N=C(c2ccc(N3CCCN(C)CC3=O)cc2)c2cc(OC)c(OC)cc2CC1C (racemic) [Example 37, (±)-7,8-dimethoxy-N,4-dimethyl-1-[4-(4-methyl-2-oxo-1,4-diazepan-1-yl)phenyl]-4,5-dihydro-3H-2,3-benzodiazepine-3-carboxamide]"
0.73 µM,0.12 µM,"CNC(=O)N1N=C(c2ccc(N3CCCOC3=O)cc2)c2cc(OC)c(OC)cc2CC1C (racemic) [Example 38, (±)-7,8-dimethoxy-N,4-dimethyl-1-[4-(2-oxo-1,3-oxazinan-3-yl)phenyl]-4,5-dihydro-3H-2,3-benzodiazepine-3-carboxamide]"
0.7 µM,0.08 µM,"CNC(=O)N1N=C(c2ccc(N3CCCC3=O)cc2)c2cc(OC)c(OC)cc2CC1C (racemic) [Example 39, (±)-7,8-dimethoxy-N,4-dimethyl-1-[4-(2-oxopyrrolidin-1-yl)phenyl]-4,5-dihydro-3H-2,3-benzodiazepine-3-carboxamide]"
1.47 µM,0.28 µM,"CNC(=O)N1N=C(c2ccc(N3CCOCC3=O)cc2)c2cc(OC)c(OC)cc2CC1C (racemic) [Example 40, (±)-7,8-dimethoxy-N,4-dimethyl-1-[4-(3-oxomorpholin-4-yl)phenyl]-4,5-dihydro-3H-2,3-benzodiazepine-3-carboxamide]"
1.35 µM,0.26 µM,"CNC(=O)N1N=C(c2ccc(N3CC(C)OCC3=O)cc2)c2cc(OC)c(OC)cc2CC1C (racemic) [Example 41, (±)-7,8-dimethoxy-N,4-dimethyl-1-[4-(2-methyl-5-oxomorpholin-4-yl)phenyl]-4,5-dihydro-3H-2,3-benzodiazepine-3-carboxamide]"
1.29 µM,0.2 µM,"CNC(=O)N1N=C(c2ccc(N3CCOC(C)C3=O)cc2)c2cc(OC)c(OC)cc2CC1C (racemic) [Example 42, (±)-7,8-dimethoxy-N,4-dimethyl-1-[4-(2-methyl-3-oxomorpholin-4-yl)phenyl]-4,5-dihydro-3H-2,3-benzodiazepine-3-carboxamide]"
0.84 µM,0.3 µM,"CNC(=O)N1N=C(c2ccc(N3CCN(C)CC3=O)cc2)c2cc(OC)c(OC)cc2CC1C (racemic) [Example 43, (±)-7,8-dimethoxy-N,4-dimethyl-1-[4-(4-methyl-2-oxopiperazin-1-yl)phenyl]-4,5-dihydro-3H-2,3-benzodiazepine-3-carboxamide]"
0.21 µM,0.05 µM,"CNC(=O)N1N=C(c2ccc(N3CCNCC3=O)cc2)c2cc(OC)c(OC)cc2CC1C (racemic) [Example 44, (±)-7,8-Dimethoxy-N,4-dimethyl-1-[4-(2-oxopiperazin-1-yl)phenyl]-4,5-dihydro-3H-2,3-benzodiazepine-3-carboxamide]"
0.53 µM,0.11 µM,"CNC(=O)N1N=C(c2ccc(-c3cnc(C)n3C)cc2)c2cc(OC)c(OC)cc2CC1C (racemic) [Example 47, (±)-1-[4-(1,2-dimethyl-1H-imidazol-5-yl)phenyl]-7,8-dimethoxy-N-dimethyl-4,5-dihydro-3H-2,3-benzodiazepine-3-carboxamide]"
0.42 µM,0.04 µM,"CNC(=O)N1N=C(c2ccc(-c3ccc(O)nc3)cc2)c2cc(OC)c(OC)cc2CC1C (racemic) [Example 49, (±)-1-[4-(6-hydroxypyridin-3-yl)phenyl]-7,8-dimethoxy-N,4-dimethyl-4,5-dihydro-3H-2,3-benzodiazepine-3-carboxamide]"
0.56 µM,0.15 µM,"CNC(=O)N1N=C(c2ccc(-c3ccc(C(F)(F)F)nc3)cc2)c2cc(OC)c(OC)cc2CC1C (racemic) [Example 50, (±)-7,8-dimethoxy-N,4-dimethyl-1-{4-[6-(trifluoromethyl)pyridin-3-yl]phenyl}-4,5-dihydro-3H-2,3-benzodiazepine-3-carboxamide]"
0.35 µM,0.04 µM,"CNC(=O)N1N=C(c2cccc(-c3c(C)nn(C)c3C)c2)c2cc(OC)c(OC)cc2CC1C (racemic) [Example 53, (±)-7,8-dimethoxy-N,4-dimethyl-1-[3-(1,3,5-trimethyl-1H-pyrazol-4-yl)phenyl]-4,5-dihydro-3H-2,3-benzodiazepine-3-carboxamide]"
0.44 µM,0.05 µM,"CNC(=O)N1N=C(c2cccc(-c3cnn(C)c3)c2)c2cc(OC)c(OC)cc2CC1C (racemic) [Example 54, (±)-7,8-dimethoxy-N,4-dimethyl-1-[3-(1-methyl-1H-pyrazol-4-yl)phenyl]-4,5-dihydro-3H-2,3-benzodiazepine-3-carboxamide]"
0.9 µM,0.12 µM,"CNC(=O)N1N=C(c2cccc(-c3ccnn3C)c2)c2cc(OC)c(OC)cc2CC1C (racemic) [Example 55, (±)-7,8-dimethoxy-N,4-dimethyl-1-[3-(1-methyl-1H-pyrazol-5-yl)phenyl]-4,5-dihydro-3H-2,3-benzodiazepine-3-carboxamide]"
0.9 µM,0.18 µM,"CNC(=O)N1N=C(c2ccc(F)c(-c3c(C)nn(C)c3C)c2)c2cc(OC)c(OC)cc2CC1C (racemic) [Example 56, (±)-1-[4-fluoro-3-(1,3,5-trimethyl-1H-pyrazol-4-yl)phenyl]-7,8-dimethoxy-N,4-dimethyl-4,5-dihydro-3H-2,3-benzodiazepine-3-carboxamide]"
0.79 µM,0.09 µM,"CNC(=O)N1N=C(c2ccc(F)c(-c3cnn(C)c3)c2)c2cc(OC)c(OC)cc2CC1C (racemic) [Example 57, (±)-1-[4-fluoro-3-(1-methyl-1H-pyrazol-4-yl)phenyl]-7,8-dimethoxy-N,4-dimethyl-4,5-dihydro-3H-2,3-benzodiazepine-3-carboxamide]"
0.99 µM,0.25 µM,"CNC(=O)N1N=C(c2ccc(F)c(-c3c(C)noc3C)c2)c2cc(OC)c(OC)cc2CC1C (racemic) [Example 58, (±)-1-[3-(3,5-dimethylisoxazol-4-yl)-4-fluoroophenyl]-7,8-dimethoxy-N,4-dimethyl-4,5-dihydro-3H-2,3-benzodiazepine-3-carboxamide]"
0.62 µM,0.07 µM,"CNC(=O)N1N=C(c2ccc(-c3cccc([N+](=O)[O-])c3)cc2)c2cc(OC)c(OC)cc2CC1C (racemic) [Example 59, (±)-7,8-dimethoxy-N,4-dimethyl-1-(3′-nitrobiphenyl-4-yl)-4,5-dihydro-3H-2,3-benzodiazepine-3-carboxamide]"
0.48 µM,0.08 µM,"CNC(=O)N1N=C(c2ccc(-c3ccccc3)cc2)c2cc(OC)c(OC)cc2CC1C (racemic) [Example 60, (±)-1-(biphenyl-4-yl)-7,8-dimethoxy-N,4-dimethyl-4,5-dihydro-3H-2,3-benzodiazepine-3-carboxamide]"
2.11 µM,0.57 µM,"CNC(=O)N1N=C(c2ccc(-c3ccc(Cl)cc3Cl)cc2)c2cc(OC)c(OC)cc2CC1C (racemic) [Example 61, (±)-1-(2′,4′-dichlorobiphenyl-4-yl)-7,8-dimethoxy-N,4-dimethyl-4,5-dihydro-3H-2,3-benzodiazepine-3-carboxamide]"
0.65 µM,0.06 µM,"CNC(=O)N1N=C(c2ccc(-c3ccc(F)cc3)cc2)c2cc(OC)c(OC)cc2CC1C (racemic) [Example 62, (±)-1-(4′-fluorobiphenyl-4-yl)-7,8-dimethoxy-N,4-dimethyl-4,5-dihydro-3H-2,3-benzodiazepine-3-carboxamide]"
0.77 µM,0.17 µM,"CNC(=O)N1N=C(c2ccc(-c3ccc(Cl)cc3)cc2)c2cc(OC)c(OC)cc2CC1C (racemic) [Example 63, (±)-1-(4′-chlorobiphenyl-4-yl)-7,8-dimethoxy-N,4-dimethyl-4,5-dihydro-3H-2,3-benzodiazepine-3-carboxamide]"
0.88 µM,0.11 µM,"CNC(=O)N1N=C(c2ccc(-c3ccc(C)cc3)cc2)c2cc(OC)c(OC)cc2CC1C (racemic) [Example 64, (±)-7,8-dimethoxy-N,4-dimethyl-1-(4′-methylbiphenyl-4-yl)-4,5-dihydro-3H-2,3-benzodiazepine-3-carboxamide]"
0.63 µM,0.1 µM,"CNC(=O)N1N=C(c2ccc(-c3ccc(OC)cc3)cc2)c2cc(OC)c(OC)cc2CC1C (racemic) [Example 65, (±)-7,8-dimethoxy-1-(4′-methoxybiphenyl-4-yl)-N,4-dimethyl-4,5-dihydro-3H-2,3-benzodiazepine-3-carboxamide]"
